Laboratory results as given in patent publication US20240352426A1, “Accelerated Protocol for the Differentiation of Podocytes from Human Pluripotent Stem Cells” (Vanderbilt University, priority 2021, published 2024).

Test system: iPSC-derived primitive streak cells
Test: Flow cytometry of differentiation markers after CHIR99021 treatment of primitive streak cells
Type: cell-based, human
Experimental: iPSCs seeded onto Geltrex-coated plates at a density of 100,000 cells/cm^2 were treated with mTesR media with 10 μM ROCKi for the first 24 h. On Day 0, cells were treated with base media (DMEM/F12 with GlutaMax, 1×B27) supplemented with primitive streak induction factors including 100 ng/ml Activin A and 3 μM CHIR99021. On Day 2, cells were treated with base media including 8 μM CHIR99021 to induce intermediate mesoderm until Day 5, followed by treatment with base medium containing 200 ng/ml FGF9 and 1 mg/ml Heparin (Sigma-Aldrich, St. Louis, Missouri). On Day 7, to induce the nephron progenitors, the cells were dissociated using Accutase and replated (1:4) onto laminin-511-coated plates. The podocyte phenotype was induced using base media supplemented with 100 ng/ml BMP7, 100 ng/ml Activin A, 50 ng/ml VEGF, 3 μM CHIR99021, and 0.1 μM RA and cells were assayed on Day 12. The detailed methods for deriving the podocytes was carefully described elsewhere (Bejoy J, et al. STAR protocols. 2021 2 (4): 100898).
To evaluate the expression of proteins of interest quantitatively, the cells were harvested by Accutase treatment and analyzed by flow cytometry. […] The cells were acquired with BD FACSCanto II flow cytometer (BD Biosciences, Beckton, New Jersey) and analyzed against isotype controls using FlowJo software. […]

Cc1c[nH]c(-c2cnc(NCCNc3ccc(C#N)cn3)nc2-c2ccc(Cl)cc2Cl)n1 [CHIR99021]
population of MIXL1+ cells (flow cytometry) (8 μM CHIR99021 for 2-3 days on primitive streak cells): 26.7%
cells expressing PAX8 (flow cytometry) (day 5, after 8 μM CHIR99021, intermediate mesoderm stage): 95.9%
